target: RAF proto-oncogene serine/threonine-protein kinase (Homo sapiens, UniProt P04049); experiment: Inhibition of 1 to 324 residues truncated c-Raf (unknown origin) expressed in baculovirus infected Sf9 insect cells using full length biotinylated MEK1 ATP binding site K97R mutant as substrate preincubated for 60 mins followed by ATP addition measured after 1 hr by alpha screen assay
Sequence (P04049 whole entry, the tested form may be a part): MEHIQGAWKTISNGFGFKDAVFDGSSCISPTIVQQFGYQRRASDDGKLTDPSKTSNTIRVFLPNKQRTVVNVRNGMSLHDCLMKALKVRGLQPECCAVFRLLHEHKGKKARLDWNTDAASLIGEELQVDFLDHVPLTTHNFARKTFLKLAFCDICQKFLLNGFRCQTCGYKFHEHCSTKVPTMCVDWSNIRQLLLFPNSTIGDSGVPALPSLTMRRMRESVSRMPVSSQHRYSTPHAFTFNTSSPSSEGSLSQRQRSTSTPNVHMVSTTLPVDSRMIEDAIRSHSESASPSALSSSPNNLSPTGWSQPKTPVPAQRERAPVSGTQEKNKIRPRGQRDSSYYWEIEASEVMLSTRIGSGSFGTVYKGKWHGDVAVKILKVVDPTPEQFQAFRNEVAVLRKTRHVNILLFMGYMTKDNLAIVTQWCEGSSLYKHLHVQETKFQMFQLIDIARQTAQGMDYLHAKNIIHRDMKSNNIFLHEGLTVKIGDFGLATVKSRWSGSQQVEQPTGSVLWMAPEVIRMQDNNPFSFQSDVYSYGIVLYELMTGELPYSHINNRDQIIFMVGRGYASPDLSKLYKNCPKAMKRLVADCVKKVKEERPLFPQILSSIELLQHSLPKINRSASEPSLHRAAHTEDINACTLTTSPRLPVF

Structure (SMILES) | IC50 [nM]
Cc1ccc(NC(=O)c2ccnc(C(F)(F)F)c2)cc1-c1cc(OCCOP(=O)(O)O)nc(N2CCOC[C@H]2C)c1 | 2
Cc1ccc(NC(=O)c2cc(C(F)(F)F)ccn2)cc1-c1cc(OCC(O)CP(=O)(O)O)nc(N2CCOCC2)c1 (stereo unspecified) | 0.024
Cc1ccc(NC(=O)c2ccnc(C(F)(F)F)c2)cc1-c1cc(OCCOP(=O)(O)O)nc(N2CCOCC2)c1 | 0.1
Cc1ccc(NC(=O)c2ccnc(C(C)(F)F)c2)cc1-c1cc(OCCOP(=O)(O)O)nc(N2CCOC[C@H]2C)c1 | 0.1
Cc1ccc(NC(=O)c2cccc(C(F)(F)F)c2)cc1-c1cc(OCCOP(=O)(O)O)nc(N2CCOC[C@H]2C)c1 | 6
Cc1ccc(NC(=O)c2ccnc(C(F)(F)F)c2)cc1-c1cnc(OCCOP(=O)(O)O)c(N2CCOCC2)c1 | 0.03

— ChEMBL document CHEMBL3864171, “Pyridyl Isonicotinamide Inhibitors of RAF Kinase” (ACS Med Chem Lett, 2016)
